Read-outs that look alike come from different tables or passages of the source.
What was measured:
[1] = system: phosphorylation of CDK1 at Thr14 in HCC1806 cells; assay: Cell lysate AlphaLISA assay measuring inhibition of phosphorylation of CDK1 Thr14; type: cell-based; settings: read-out: Cellular IC50
Procedure, shortened: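 HCC1806 cells seeded overnight, then treated 4 h at 37 °C, 5% CO2 with compounds in DMSO; washed and lysed, lysates frozen overnight at −80 °C. CDK1 Thr14 phosphorylation read by AlphaLISA SureFire Ultra; data normalized to DMSO (0% inhibition) and 3 μM reference compound to give IC50.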

PKMYT1 = target: T1, PKMYT1 (Homo sapiens, UniProt Q99640); assay: ADP-Glo PKMYT1 ATP-depletion assay; settings: 50 nM PKMYT1, 13.3 nM CDK1, read-out: Biochemical IC50
T1 construct: PKMYT1 (93 kD, full length, N-terminal GST tag from Signal Chem); GST (N); purchased Signal Chem
T1 sequence (Q99640 1-499): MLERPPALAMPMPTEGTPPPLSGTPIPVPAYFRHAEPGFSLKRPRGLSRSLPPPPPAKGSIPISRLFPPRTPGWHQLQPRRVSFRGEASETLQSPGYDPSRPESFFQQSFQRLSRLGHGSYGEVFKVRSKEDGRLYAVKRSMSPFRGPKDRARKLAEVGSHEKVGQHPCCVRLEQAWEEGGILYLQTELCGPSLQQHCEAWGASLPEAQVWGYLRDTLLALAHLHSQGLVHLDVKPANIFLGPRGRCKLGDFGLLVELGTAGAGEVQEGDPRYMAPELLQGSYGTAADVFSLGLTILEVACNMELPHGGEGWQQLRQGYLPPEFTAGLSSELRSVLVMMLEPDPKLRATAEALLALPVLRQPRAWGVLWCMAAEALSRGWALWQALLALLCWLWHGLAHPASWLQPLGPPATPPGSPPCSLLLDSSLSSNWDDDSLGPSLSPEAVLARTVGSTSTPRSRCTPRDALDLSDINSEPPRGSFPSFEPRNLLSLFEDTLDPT
Procedure, shortened: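 Full-length N-terminal GST-tagged PKMYT1 (50 nM) with GST-CDK1 (13.3 nM) as substrate and 88 µM ATP, in Hepes buffer with MgCl2, MnCl2, DTT and BSA; DMSO <1%. Incubated 120 min at RT. ADP formed was quantified by ADP-Glo luminescence and used to derive biochemical IC50.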

| SMILES | IC50 ([1]; Homo sapiens, HCC1806, 4 h) [nM] | IC50 (PKMYT1) [nM] | IC50 ([1]; 4 hours) [nM] |
| --- | --- | --- | --- |
| Cc1ccc(O)c(C)c1-c1c(N)c(C(N)=O)cc2nc(C(F)(F)F)cnc12 [Compound 101, 7-Amino-8-(3-hydroxy-2,6-dimethylphenyl)-3-(trifluoromethyl)quinoxaline-6-carboxamide] | 50 to 500 | 50 to 500 | – |
| COc1cncc(-c2c(N)c(C(N)=O)cc3nccnc23)c1C [Compound 107, 7-amino-8-(5-methoxy-4-methylpyridin-3-yl)quinoxaline-6-carboxamide] | ≥ 5000 | 50 to 500 | – |
| NC(=O)c1cc2nccnc2c(-c2cccc3[nH]ncc23)c1N [Compound 108, 7-Amino-8-(1H-indazol-4-yl)quinoxaline-6-carboxamide] | 1000 to 5000 | 50 to 500 | – |
| Cc1n[nH]c2cccc(-c3c(N)c(C(N)=O)cc4nccnc34)c12 [Compound 109, 7-Amino-8-(3-methyl-1H-indazol-4-yl)quinoxaline-6-carboxamide] | ≥ 5000 | 50 to 500 | – |
| Cc1c(-c2c(N)c(C(N)=O)cc3nccnc23)ccnc1O [Compound 110, 7-Amino-8-(2-hydroxy-3-methylpyridin-4-yl)quinoxaline-6-carboxamide] | – | ≥ 5000 | ≥ 5000 |
| Cc1c(O)cncc1-c1c(N)c(C(N)=O)cc2nccnc12 [Compound 113, 7-amino-8-(5-hydroxy-4-methylpyridin-3-yl)quinoxaline-6-carboxamide] | 1000 to 5000 | 50 to 500 | – |
| NC(=O)c1cc2nccnc2c(-c2cc(O)ccc2F)c1N [Compound 114, 7-Amino-8-(2-fluoro-5-hydroxyphenyl)quinoxaline-6-carboxamide] | 1000 to 5000 | 50 to 500 | – |
| Cc1c(O)cccc1-c1c(N)c(C(N)=O)cc2ncc(C(F)(F)F)nc12 [Compound 115, 7-Amino-8-(3-hydroxy-2-methylphenyl)-2-(trifluoromethyl)quinoxaline-6-carboxamide] | – | 50 to 500 | 500 to 1000 |
| NC(=O)c1cc2nccnc2c(-c2cccc(O)c2F)c1N [Compound 120, 7-Amino-8-(2-fluoro-3-hydroxyphenyl)quinoxaline-6-carboxamide] | 50 to 500 | 50 to 500 | – |
| NC(=O)c1cc2nccnc2c(-c2cc(O)ccc2Cl)c1N [Compound 121, 7-Amino-8-(2-chloro-5-hydroxyphenyl)quinoxaline-6-carboxamide] | 1000 to 5000 | 50 to 500 | – |
| NC(=O)c1cc2nccnc2c(-c2cc(O)cnc2Cl)c1N [Compound 122, 7-Amino-8-(2-chloro-5-hydroxy-3-pyridyl)quinoxaline-6-carboxamide] | ≥ 5000 | 1000 to 5000 | – |
| Cc1ccc(O)cc1-c1c(N)c(C(N)=O)cc2nccnc12 [Compound 123, 7-Amino-8-(5-hydroxy-2-methylphenyl)quinoxaline-6-carboxamide] | – | 50 to 500 | 1000 to 5000 |
| Cc1ccc(O)c(C)c1-c1c(N)c(C(N)=O)nc2nccnc12 [Compound 126, 7-amino-8-(3-hydroxy-2,6-dimethylphenyl)pyrido[2,3-b]pyrazine-6-carboxamide] | 50 to 500 | < 50 | – |
| Cc1c(O)cccc1-c1c(N)c(C(N)=O)nc2cccc(C#N)c12 [Compound 129, 3-Amino-5-cyano-4-(3-hydroxy-2-methylphenyl)quinoline-2-carboxamide] | < 50 | < 50 | – |
| Cc1cc(O)cc(C)c1-c1cc(C(N)=O)nc2ccccc12 [Compound 130] | ≥ 5000 | ≥ 5000 | – |
| Cc1cc(O)cc(C)c1-c1cc(C(N)=O)cc2nccnc12 [Compound 131] | ≥ 5000 | ≥ 5000 | – |
| Cn1ccc(-c2cc(C(N)=O)cc3nccnc23)cc1=O [Compound 132] | ≥ 5000 | ≥ 5000 | – |
| Cc1c(O)cccc1-c1c(N)c(C(N)=O)cc2nc(C(F)(F)F)c(O)nc12 [Compound 133] | – | 50 to 500 | 1000 to 5000 |
| COc1cccc(-c2cc(C(N)=O)nc3c(C)ccc(C)c23)c1C [Compound 134] | ≥ 5000 | ≥ 5000 | – |
| Cc1c(O)cccc1-c1c(N)c(C(N)=O)cc2nc(O)c(C(F)(F)F)nc12 [Compound 137] | ≥ 5000 | 1000 to 5000 | – |
| Cc1c(O)cccc1-c1c(N)c(C(N)=O)cc2nc(C)c(=O)n(C)c12 [Compound 138] | – | 50 to 500 | 1000 to 5000 |
| Cc1c(O)cccc1-c1c(N)c(C(N)=O)cc2ncc(C(F)(F)F)nc12 [Compound 139] | – | < 50 | 50 to 500 |
| NC(=O)c1cc2nccnc2c(-c2c(Cl)ccc3[nH]ncc23)c1N [Compound 142] | – | 50 to 500 | 1000 to 5000 |
| Cc1ccc2[nH]ncc2c1-c1c(N)c(C(N)=O)cc2cccnc12 [Compound 143] | 1000 to 5000 | 50 to 500 | – |
| Cc1ccc2[nH]ncc2c1-c1c(N)c(C(N)=O)cc2ncccc12 [Compound 144] | 1000 to 5000 | 50 to 500 | – |
| NC(=O)c1cc2nccnc2c(-c2cncc(O)c2)c1N [Compound 145] | ≥ 5000 | 50 to 500 | – |
| Cc1c(O)cccc1-c1c(N)c(C(N)=O)cc2cc(Cl)cnc12 [Compound 146] | 50 to 500 | < 50 | – |

| SMILES | IC50 ([1]; Homo sapiens, HCC1806, 4 h) [nM] | IC50 (PKMYT1) [nM] | IC50 ([1]; 4 hours) [nM] |
| --- | --- | --- | --- |
| COc1cncc(-c2c(N)c(C(N)=O)nc3cccnc23)c1C [Compound 153] | – | 50 to 500 | 500 to 1000 |
| CCOc1ccc2nc(C(N)=O)c(N)c(-c3cccc(O)c3C)c2n1 [Compound 154] | 50 to 500 | < 50 | – |
| Cc1c(O)cncc1-c1c(N)c(C(N)=O)nc2cccnc12 [Compound 155] | 500 to 1000 | 50 to 500 | – |
| Cc1cnc2cc(C(N)=O)c(N)c(-c3c(C)ccc(O)c3C)c2n1 [Compound 156] | – | < 50 | 50 to 500 |
| COc1ccc2nc(C(N)=O)c(N)c(-c3cccc(O)c3C)c2n1 [Compound 157] | – | < 50 | 50 to 500 |
| Cn1c(-c2c(N)c(C(N)=O)nc3cccnc23)cccc1=O [Compound 158] | ≥ 5000 | 1000 to 5000 | – |
| Cc1c(-c2c(N)c(C(N)=O)cc3nccnc23)ccnc1O [Compound 159] | ≥ 5000 | ≥ 5000 | – |
| NC(=O)c1nc2cccnc2c(-c2cccc3c2CCN3)c1N [Compound 160] | 500 to 1000 | ≥ 5000 | – |
| Cc1c(O)cccc1-c1c(N)c(C(N)=O)nc2cc(C(F)(F)F)cnc12 [Compound 161] | – | < 50 | 50 to 500 |
| NC(=O)c1nc2cccnc2c(-c2cccc3c2CCN3C=O)c1N [Compound 162] | ≥ 5000 | ≥ 5000 | – |
| COc1nc2cc(C(N)=O)c(N)c(-c3cccc(O)c3C)c2nc1C [Compound 172] | – | 50 to 500 | 50 to 500 |
| COc1nc2c(-c3cccc(O)c3C)c(N)c(C(N)=O)cc2nc1C [Compound 173] | – | 50 to 500 | 50 to 500 |
| Cc1ccc2[nH]nc(F)c2c1-c1c(N)c(C(N)=O)cc2nccnc12 [Compound 176] | – | 500 to 1000 | ≥ 5000 |
| Cc1ccc(O)c(C)c1-c1c(N)c(C(N)=O)cc2cc(Cl)cnc12 [Compound 177] | – | < 50 | 50 to 500 |
| NC(=O)c1cc2nccnc2c(-c2ccc3ocnc3c2)c1N [Compound 178] | ≥ 5000 | ≥ 5000 | – |
| NC(=O)c1nc2cccnc2c(-c2cccc3[nH]cnc23)c1N [Compound 181] | ≥ 5000 | ≥ 5000 | – |
| NC(=O)c1cc2nccnc2c(-c2ccnc3[nH]ncc23)c1N [Compound 182] | ≥ 5000 | 1000 to 5000 | – |
| NC(=O)c1nc2cccnc2c(-c2cnc(N)cc2C(F)(F)F)c1N [Compound 183] | ≥ 5000 | ≥ 5000 | – |
| Cc1ccncc1-c1c(N)c(C(N)=O)nc2cccnc12 [Compound 184] | ≥ 5000 | 50 to 500 | – |
| COc1cncc(C2=c3ncccc3=NC(C(N)=O)C2N)c1C (stereo not drawn) [Compound 186] | 500 to 1000 | 50 to 500 | – |
| Cc1c(O)cccc1-c1c(N)c(C(N)=O)cc2nc(C(F)(F)F)cnc12 [Compound 189] | – | 50 to 500 | 500 to 1000 |
| NC(=O)c1nc2cccnc2c(-c2ccc(F)c3[nH]ncc23)c1N [Compound 190] | 1000 to 5000 | 50 to 500 | – |
| NC(=O)c1nc2cccnc2c(-c2ccnc3[nH]ncc23)c1N [Compound 191] | ≥ 5000 | 1000 to 5000 | – |
| Cc1cnc2c(-c3cccc(O)c3C)c(N)c(C(N)=O)cc2c1 [Compound 196] | 1000 to 5000 | 50 to 500 | – |
| Cc1c(-c2c(N)c(C(N)=O)cc3nccnc23)ccc2oc(N)nc12 [Compound 197] | ≥ 5000 | ≥ 5000 | – |
| NC(=O)c1cc2nccnc2c(-c2ccc3ncoc3c2)c1N [Compound 198] | ≥ 5000 | ≥ 5000 | – |
| NC(=O)c1cc2nccnc2c(-c2cccc(O)c2C(F)(F)F)c1N [Compound 199] | 1000 to 5000 | 50 to 500 | – |

— patent US20260176270A1 (Exelixis, Inc., priority 2022, published 2026)
